These are literature values, as cited in article PMC10604444, “Extra-Synaptic GABAA Receptor Potentiation and Neurosteroid-Induced Learning Deficits Are Inhibited by GR3027, a GABAA Modulating Steroid Antagonist” (Biomolecules, 2023).

The data set concerns patients with hepatic encephalopathy. Set-up: method as in PMID 33894327. As to conditions: humans; cited from earlier work.

Consider `C#C[C@]1(O)CC[C@@]2(C)[C@@H](CC[C@@H]3[C@@H]2CC[C@]2(C)/C(=N/O)CC[C@@H]32)C1` [GR3027, 3α-ethynyl-3β-hydroxyl-5α-androstan-17-oxime], for which the “Effect in patients with hepatic encephalopathy” value was “improves EEG, vigilance, and cognition”.
